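Five compound concentrations were applied to cells in 96-well plates for 48 hours; endpoints were derived by simple linear interpolation of the resulting dose-response curve. Abbreviation: GI50, concentration required for 50% inhibition of growth. TGI marks complete inhibition of growth.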
Key:
Assay in all cases: NCI-60 cell line screen, 48 h
HOP-92 NSCLC = tested on: HOP-92 NSCLC
T-47D breast = tested on: T-47D breast
COLO 205 colon = tested on: COLO 205 colon
UACC-257 melanoma = tested on: UACC-257 melanoma
SK-OV-3 ovarian = tested on: SK-OV-3 ovarian
SK-MEL-2 melanoma = tested on: SK-MEL-2 melanoma
SF-268 CNS = tested on: SF-268 CNS
PC-3 prostate = tested on: PC-3 prostate
OVCAR-5 ovarian = tested on: OVCAR-5 ovarian
OVCAR-8 ovarian = tested on: OVCAR-8 ovarian
MDA-MB-435 = tested on: MDA-MB-435
MALME-3M melanoma = tested on: MALME-3M melanoma
RXF 393 renal = tested on: RXF 393 renal
K-562 leukemia = tested on: K-562 leukemia
HL-60(TB) leukemia = tested on: HL-60(TB) leukemia
NCI-H460 lung = tested on: NCI-H460 lung
HOP-62 NSCLC = tested on: HOP-62 NSCLC
HS 578T breast = tested on: HS 578T breast
UACC-62 melanoma = tested on: UACC-62 melanoma
SK-MEL-5 melanoma = tested on: SK-MEL-5 melanoma
OVCAR-3 ovarian = tested on: OVCAR-3 ovarian
SN12C renal = tested on: SN12C renal
HCC-2998 colon = tested on: HCC-2998 colon
SNB-75 CNS = tested on: SNB-75 CNS
MDA-MB-231 breast = tested on: MDA-MB-231 breast
SNB-19 CNS = tested on: SNB-19 CNS
SF-295 CNS = tested on: SF-295 CNS
SW-620 colon = tested on: SW-620 colon
EKVX NSCLC = tested on: EKVX NSCLC
786-0 renal = tested on: 786-0 renal
CCRF-CEM leukemia = tested on: CCRF-CEM leukemia
IGROV1 ovarian = tested on: IGROV1 ovarian
NCI-H522 lung = tested on: NCI-H522 lung
SF-539 CNS = tested on: SF-539 CNS
BT-549 breast = tested on: BT-549 breast
MDA-MB-468 breast = tested on: MDA-MB-468 breast
U251 CNS = tested on: U251 CNS
MCF7 breast = tested on: MCF7 breast
RPMI-8226 leukemia = tested on: RPMI-8226 leukemia
HCT-15 colon = tested on: HCT-15 colon
A549 NSCLC = tested on: A549 NSCLC
NCI-H23 lung = tested on: NCI-H23 lung
KM12 colon = tested on: KM12 colon
TK-10 renal = tested on: TK-10 renal
M14 melanoma = tested on: M14 melanoma
LOX IMVI melanoma = tested on: LOX IMVI melanoma
ACHN renal = tested on: ACHN renal
OVCAR-4 ovarian = tested on: OVCAR-4 ovarian
NCI/ADR-RES ovarian = tested on: NCI/ADR-RES ovarian
HCT-116 colon = tested on: HCT-116 colon
NCI-H226 lung = tested on: NCI-H226 lung
A498 renal = tested on: A498 renal
DU-145 prostate = tested on: DU-145 prostate

In the case of ClC(Cn1ncc2c(Nc3cccc(Br)c3)nc(SCCN3CCOCC3)nc21)c1ccc(Br)cc1 (stereo unspecified), the GI50 (HOP-92 NSCLC) is reported as 3.5 µM, the TGI (HOP-92 NSCLC) is reported as 23.9 µM and the GI50 (T-47D breast) is reported as 3.47 µM. For the same compound, the TGI (T-47D breast) was over 100 µM, the GI50 (COLO 205 colon) was 1.98 µM and the TGI (COLO 205 colon) was 4.48 µM. For the same compound, the GI50 (UACC-257 melanoma) was 2.82 µM, the TGI (UACC-257 melanoma) was 9.84 µM and the GI50 (SK-OV-3 ovarian) was 6.46 µM. It also gave a TGI (SK-OV-3 ovarian) of over 100 µM, a GI50 (SK-MEL-2 melanoma) of 4.62 µM and a TGI (SK-MEL-2 melanoma) of 24.5 µM. It also gave a GI50 (SF-268 CNS) of 6.94 µM, a TGI (SF-268 CNS) of over 100 µM and a GI50 (PC-3 prostate) of 3.77 µM. For the same compound, the TGI (PC-3 prostate) was over 100 µM, the GI50 (OVCAR-5 ovarian) was 5.24 µM and the TGI (OVCAR-5 ovarian) was 30.3 µM. The GI50 (OVCAR-8 ovarian) was 6.5 µM, the TGI (OVCAR-8 ovarian) was over 100 µM and the GI50 (MDA-MB-435) was 3.89 µM. For the same compound, the TGI (MDA-MB-435) was 21.5 µM, the GI50 (MALME-3M melanoma) was 1.81 µM and the TGI (MALME-3M melanoma) was 3.53 µM. The GI50 (RXF 393 renal) was 1.69 µM, the TGI (RXF 393 renal) was 4.49 µM and the GI50 (K-562 leukemia) was 2.84 µM. For the same compound, the TGI (K-562 leukemia) was 26.2 µM, the GI50 (HL-60(TB) leukemia) was 3.03 µM and the TGI (HL-60(TB) leukemia) was over 100 µM. For the same compound, the GI50 (NCI-H460 lung) was 3.55 µM, the TGI (NCI-H460 lung) was over 100 µM and the GI50 (HOP-62 NSCLC) was 3.71 µM. The TGI (HOP-62 NSCLC) was 22.4 µM, the GI50 (HS 578T breast) was 2.44 µM and the TGI (HS 578T breast) was 7.88 µM. It also gave a GI50 (UACC-62 melanoma) of 2.23 µM, a TGI (UACC-62 melanoma) of 4.75 µM and a GI50 (SK-MEL-5 melanoma) of 2.07 µM. For the same compound, the TGI (SK-MEL-5 melanoma) was 4.47 µM, the GI50 (OVCAR-3 ovarian) was 10.3 µM and the TGI (OVCAR-3 ovarian) was 60 µM. The GI50 (SN12C renal) was 6.47 µM, the TGI (SN12C renal) was over 100 µM and the GI50 (HCC-2998 colon) was 3.8 µM. It also gave a TGI (HCC-2998 colon) of 60 µM, a GI50 (SNB-75 CNS) of 2.57 µM and a TGI (SNB-75 CNS) of 24.3 µM. It also gave a GI50 (MDA-MB-231 breast) of 2.25 µM, a TGI (MDA-MB-231 breast) of 4.66 µM and a GI50 (SNB-19 CNS) of 5.14 µM. It also gave a TGI (SNB-19 CNS) of over 100 µM, a GI50 (SF-295 CNS) of 1.78 µM and a TGI (SF-295 CNS) of 3.57 µM. It also gave a GI50 (SW-620 colon) of 2.76 µM, a TGI (SW-620 colon) of 12.6 µM and a GI50 (EKVX NSCLC) of 5.01 µM. It also gave a TGI (EKVX NSCLC) of over 100 µM, a GI50 (786-0 renal) of 1.76 µM and a TGI (786-0 renal) of 3.35 µM. For the same compound, the GI50 (CCRF-CEM leukemia) was 2.17 µM, the TGI (CCRF-CEM leukemia) was 10.1 µM and the GI50 (IGROV1 ovarian) was 8 µM. It also gave a TGI (IGROV1 ovarian) of over 100 µM, a GI50 (NCI-H522 lung) of 2.87 µM and a TGI (NCI-H522 lung) of 9.33 µM. It also gave a GI50 (SF-539 CNS) of 1.79 µM, a TGI (SF-539 CNS) of 3.48 µM and a GI50 (BT-549 breast) of 11.7 µM. For the same compound, the TGI (BT-549 breast) was 27.9 µM, the GI50 (MDA-MB-468 breast) was 2.52 µM and the TGI (MDA-MB-468 breast) was 6.89 µM. For the same compound, the GI50 (U251 CNS) was 3.34 µM, the TGI (U251 CNS) was 41.3 µM and the GI50 (MCF7 breast) was 2.77 µM. The TGI (MCF7 breast) was 24.6 µM, the GI50 (RPMI-8226 leukemia) was 2.03 µM and the TGI (RPMI-8226 leukemia) was 4.59 µM. For the same compound, the GI50 (HCT-15 colon) was 1.65 µM, the TGI (HCT-15 colon) was 3.8 µM and the GI50 (A549 NSCLC) was 4.93 µM. For the same compound, the TGI (A549 NSCLC) was over 100 µM, the GI50 (NCI-H23 lung) was 3.46 µM and the TGI (NCI-H23 lung) was 18.6 µM. It also gave a GI50 (KM12 colon) of 2.72 µM, a TGI (KM12 colon) of 7.36 µM and a GI50 (TK-10 renal) of 13.6 µM. The TGI (TK-10 renal) was over 100 µM, the GI50 (M14 melanoma) was 2.5 µM and the TGI (M14 melanoma) was 8.72 µM. It also gave a GI50 (LOX IMVI melanoma) of 1.74 µM, a TGI (LOX IMVI melanoma) of 3.24 µM and a GI50 (ACHN renal) of 4.38 µM. The TGI (ACHN renal) was over 100 µM, the GI50 (OVCAR-4 ovarian) was 6.42 µM and the TGI (OVCAR-4 ovarian) was over 100 µM. The GI50 (NCI/ADR-RES ovarian) was 3.89 µM, the TGI (NCI/ADR-RES ovarian) was 97.5 µM and the GI50 (HCT-116 colon) was 3.09 µM. It also gave a TGI (HCT-116 colon) of over 100 µM, a GI50 (NCI-H226 lung) of 9.32 µM and a TGI (NCI-H226 lung) of 71.6 µM. For the same compound, the GI50 (A498 renal) was 6.37 µM, the TGI (A498 renal) was 35.2 µM and the GI50 (DU-145 prostate) was 15.1 µM. The TGI (DU-145 prostate) was over 100 µM.

Reference: PubChem BioAssay (NCI)
